Data taken from ChEMBL document CHEMBL1201862, “PubChem BioAssay data set” (2004).
Active and inactive are the calls of the source.

What was measured:
[1] = tested on: Streptococcus sp. 'group A'; test: Streptococcus pyogenes SK(-)GAS viability under kanamycin – luminescence, BacTiterGlo, confirmation, counter-screen for streptokinase expression inhibitor project, dose response (AID 1900); type: functional, organism-based
[2] = target: T1, Short transient receptor potential channel 4 (Mus musculus, UniProt Q9QUQ5); test: calcium entry via TRPC4 opening agents – cell-based, HEK293 TRPC4/mu-opioid, Fluo-4 calcium, dose response (AID 434937); type: functional
T1 sequence (Q9QUQ5 whole entry): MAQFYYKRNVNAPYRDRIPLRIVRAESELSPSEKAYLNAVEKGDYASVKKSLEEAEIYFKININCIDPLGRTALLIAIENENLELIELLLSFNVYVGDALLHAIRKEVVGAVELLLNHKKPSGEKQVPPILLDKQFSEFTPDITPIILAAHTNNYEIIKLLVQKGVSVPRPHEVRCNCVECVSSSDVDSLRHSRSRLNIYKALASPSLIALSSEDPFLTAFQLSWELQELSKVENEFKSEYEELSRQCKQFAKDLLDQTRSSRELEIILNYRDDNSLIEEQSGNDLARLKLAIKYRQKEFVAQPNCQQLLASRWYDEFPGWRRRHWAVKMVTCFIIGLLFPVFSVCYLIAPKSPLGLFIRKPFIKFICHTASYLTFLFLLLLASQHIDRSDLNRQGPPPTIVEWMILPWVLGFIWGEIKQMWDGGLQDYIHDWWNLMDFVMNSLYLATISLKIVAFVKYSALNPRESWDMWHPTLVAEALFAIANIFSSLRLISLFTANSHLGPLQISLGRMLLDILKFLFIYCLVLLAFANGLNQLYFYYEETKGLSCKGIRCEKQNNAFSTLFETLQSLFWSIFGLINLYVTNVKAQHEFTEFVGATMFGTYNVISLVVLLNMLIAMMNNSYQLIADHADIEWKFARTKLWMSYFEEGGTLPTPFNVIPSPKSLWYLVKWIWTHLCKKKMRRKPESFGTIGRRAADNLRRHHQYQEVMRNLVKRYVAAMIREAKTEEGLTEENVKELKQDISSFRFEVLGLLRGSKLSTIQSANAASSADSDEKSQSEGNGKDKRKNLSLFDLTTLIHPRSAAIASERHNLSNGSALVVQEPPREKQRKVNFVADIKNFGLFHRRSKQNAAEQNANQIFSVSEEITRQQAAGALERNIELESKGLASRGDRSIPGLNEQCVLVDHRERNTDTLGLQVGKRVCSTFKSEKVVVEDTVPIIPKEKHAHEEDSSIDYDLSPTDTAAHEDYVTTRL

Protein RecA = target: T2, Protein RecA (Mycobacterium tuberculosis, UniProt P9WHJ3); test: Fluorescence Cell-Free Homogeneous Dose Retest to Identify Inhibitors of RecA-Intein Splicing Activity. [Related pubchem assays (depositor defined):AID2097, AID2223, AID489010, AID492950]; type: functional
T2 sequence (P9WHJ3 whole entry): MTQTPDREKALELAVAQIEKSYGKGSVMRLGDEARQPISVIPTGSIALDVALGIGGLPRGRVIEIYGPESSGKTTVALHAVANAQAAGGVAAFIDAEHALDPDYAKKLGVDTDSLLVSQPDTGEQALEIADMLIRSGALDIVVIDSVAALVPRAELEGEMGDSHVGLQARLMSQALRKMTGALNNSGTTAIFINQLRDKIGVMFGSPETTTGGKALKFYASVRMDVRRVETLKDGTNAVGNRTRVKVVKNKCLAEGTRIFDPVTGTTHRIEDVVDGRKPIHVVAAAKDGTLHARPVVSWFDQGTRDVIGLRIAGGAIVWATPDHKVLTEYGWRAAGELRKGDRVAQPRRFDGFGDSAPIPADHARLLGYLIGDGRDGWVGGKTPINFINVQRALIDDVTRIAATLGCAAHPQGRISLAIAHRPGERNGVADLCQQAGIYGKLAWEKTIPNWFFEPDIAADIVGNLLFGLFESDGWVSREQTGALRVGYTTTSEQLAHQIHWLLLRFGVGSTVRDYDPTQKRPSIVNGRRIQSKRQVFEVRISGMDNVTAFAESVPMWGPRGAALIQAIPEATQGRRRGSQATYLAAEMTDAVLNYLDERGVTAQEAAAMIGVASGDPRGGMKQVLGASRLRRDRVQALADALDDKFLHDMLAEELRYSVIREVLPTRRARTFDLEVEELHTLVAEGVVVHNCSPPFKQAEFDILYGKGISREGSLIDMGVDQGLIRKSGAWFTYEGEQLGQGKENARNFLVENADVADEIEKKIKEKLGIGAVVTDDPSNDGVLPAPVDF

Apelin receptor = Apelin receptor (Homo sapiens, UniProt P35414); test: apelin receptor antagonists, arrestin read-out – cell-based, luminescent, enzyme-fragment complementation, selectivity assay for CCR6 antagonist project, SAR follow-up (AID 588359); type: functional
Beta-galactosidase = Beta-galactosidase (Escherichia coli, UniProt Q8VNN2); test: detection-enzyme interference by beta-gal modulators – biochemical, E. coli enzyme, set 3, artefact control for CCR6 antagonist project, dose response (AID 504712); type: functional
Streptococcus = test: GAS UMAA2166 growth inhibition – luminescence, BacTiterGlo, counter-screen for streptokinase expression inhibitor project, dose response (AID 1915); type: functional, organism-based;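 further: potency for reduction of bacterial viability or growth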
[3] = target: T3, Replicative DNA helicase DnaB (Mycobacterium tuberculosis, UniProt P9WMR3); test: DnaB intein splicing inhibitors, dose response, biochemical, cell-free fluorescence (AID 449749); type: functional
T3 sequence (P9WMR3 whole entry): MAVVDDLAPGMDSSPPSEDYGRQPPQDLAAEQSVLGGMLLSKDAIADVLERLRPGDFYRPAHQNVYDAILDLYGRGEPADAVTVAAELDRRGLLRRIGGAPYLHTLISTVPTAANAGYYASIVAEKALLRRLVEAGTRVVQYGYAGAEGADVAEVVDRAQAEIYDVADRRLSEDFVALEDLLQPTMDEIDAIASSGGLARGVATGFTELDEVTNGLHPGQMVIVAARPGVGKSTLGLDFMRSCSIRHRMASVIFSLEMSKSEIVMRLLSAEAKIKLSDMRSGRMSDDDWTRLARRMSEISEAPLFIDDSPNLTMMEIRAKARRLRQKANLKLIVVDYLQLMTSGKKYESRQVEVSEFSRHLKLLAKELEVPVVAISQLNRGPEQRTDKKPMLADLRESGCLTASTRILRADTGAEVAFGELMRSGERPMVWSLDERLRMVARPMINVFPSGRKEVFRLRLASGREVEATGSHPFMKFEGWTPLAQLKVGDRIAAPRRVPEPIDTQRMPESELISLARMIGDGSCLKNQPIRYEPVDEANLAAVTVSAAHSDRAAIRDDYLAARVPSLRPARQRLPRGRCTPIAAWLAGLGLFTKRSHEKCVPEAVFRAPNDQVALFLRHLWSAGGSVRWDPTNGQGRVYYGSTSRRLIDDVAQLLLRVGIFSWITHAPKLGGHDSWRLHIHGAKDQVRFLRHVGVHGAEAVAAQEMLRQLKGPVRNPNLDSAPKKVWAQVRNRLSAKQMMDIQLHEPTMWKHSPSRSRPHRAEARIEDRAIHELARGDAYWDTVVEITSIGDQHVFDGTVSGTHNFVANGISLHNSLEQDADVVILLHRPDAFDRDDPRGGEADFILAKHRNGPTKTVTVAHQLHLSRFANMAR

HEK293 [4] = test: cells; settings: Homo sapiens
[5] = target: Induced myeloid leukemia cell differentiation protein Mcl-1 (Homo sapiens, UniProt Q07820); type: functional
Paired box protein Pax-8 = Paired box protein Pax-8 (Homo sapiens, UniProt Q06710); test: PAX8 transcriptional activity inhibition in RMG-I – RMG-I cells, luciferase, cherry-pick, dose response (AID 687027); type: functional, cell-based;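 further: luciferase reporter driven by Pax8 target thyroperoxidase promoter measured by SteadyGlo luminescence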
HEK293 [6] = test: cells; settings: Homo sapiens; remark: listed apart in the source
CAAX prenyl protease 2 [7] = target: T4, CAAX prenyl protease 2 (Saccharomyces cerevisiae S288c, UniProt Q03530); type: biochemical
T4 sequence (Q03530 whole entry): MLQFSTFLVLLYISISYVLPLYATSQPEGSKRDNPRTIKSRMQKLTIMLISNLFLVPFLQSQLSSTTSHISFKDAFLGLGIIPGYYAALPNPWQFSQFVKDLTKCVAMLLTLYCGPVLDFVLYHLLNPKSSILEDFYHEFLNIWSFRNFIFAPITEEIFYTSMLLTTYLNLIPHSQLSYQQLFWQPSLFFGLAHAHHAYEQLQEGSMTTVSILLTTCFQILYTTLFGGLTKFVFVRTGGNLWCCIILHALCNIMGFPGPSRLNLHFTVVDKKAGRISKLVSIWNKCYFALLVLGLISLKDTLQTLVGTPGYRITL

CAAX prenyl protease 2 [8] = target: CAAX prenyl protease 2 (Homo sapiens, UniProt Q9Y256); test: inhibition of Ras-converting CAAX protease Rce1 – biochemical, yeast membranes, quenched-peptide fluorescence, cherry-pick, dose response (AID 588849)
[9] = Luminescence Cell-Based Dose Retest to Confirm Inhibitors of Cancer Stem Cells. [Related pubchem assays (depositor defined):AID2717, AID2721]; type: functional; settings: Homo sapiens

Beta-galactosidase, sequence (Q8VNN2 whole entry): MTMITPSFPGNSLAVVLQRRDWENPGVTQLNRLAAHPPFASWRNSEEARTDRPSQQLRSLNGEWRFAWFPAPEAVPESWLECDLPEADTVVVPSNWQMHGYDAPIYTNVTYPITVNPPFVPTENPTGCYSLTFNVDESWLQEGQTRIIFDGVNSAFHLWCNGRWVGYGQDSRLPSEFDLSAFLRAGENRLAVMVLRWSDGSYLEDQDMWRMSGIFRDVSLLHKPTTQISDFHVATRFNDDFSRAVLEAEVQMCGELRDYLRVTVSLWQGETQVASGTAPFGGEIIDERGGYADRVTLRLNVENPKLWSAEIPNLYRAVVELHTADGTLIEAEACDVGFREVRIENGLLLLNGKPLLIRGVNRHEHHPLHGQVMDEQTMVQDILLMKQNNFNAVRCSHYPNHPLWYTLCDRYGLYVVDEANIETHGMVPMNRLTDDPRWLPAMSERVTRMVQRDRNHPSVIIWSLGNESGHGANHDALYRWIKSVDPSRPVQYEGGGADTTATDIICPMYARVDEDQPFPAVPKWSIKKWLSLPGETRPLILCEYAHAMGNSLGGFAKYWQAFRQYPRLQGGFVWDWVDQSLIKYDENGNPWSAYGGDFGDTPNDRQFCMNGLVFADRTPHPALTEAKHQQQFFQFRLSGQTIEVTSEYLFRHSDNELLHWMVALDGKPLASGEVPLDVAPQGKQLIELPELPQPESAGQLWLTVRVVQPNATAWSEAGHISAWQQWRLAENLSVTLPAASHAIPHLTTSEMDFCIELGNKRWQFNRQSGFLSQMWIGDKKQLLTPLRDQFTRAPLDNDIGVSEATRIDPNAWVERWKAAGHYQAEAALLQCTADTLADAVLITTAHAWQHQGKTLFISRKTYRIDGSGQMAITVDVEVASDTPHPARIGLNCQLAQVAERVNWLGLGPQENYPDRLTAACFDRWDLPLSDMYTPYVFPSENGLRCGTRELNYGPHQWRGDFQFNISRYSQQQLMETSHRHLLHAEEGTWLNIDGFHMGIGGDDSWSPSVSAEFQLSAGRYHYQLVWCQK
Apelin receptor, sequence (P35414 whole entry, the tested form may be a part): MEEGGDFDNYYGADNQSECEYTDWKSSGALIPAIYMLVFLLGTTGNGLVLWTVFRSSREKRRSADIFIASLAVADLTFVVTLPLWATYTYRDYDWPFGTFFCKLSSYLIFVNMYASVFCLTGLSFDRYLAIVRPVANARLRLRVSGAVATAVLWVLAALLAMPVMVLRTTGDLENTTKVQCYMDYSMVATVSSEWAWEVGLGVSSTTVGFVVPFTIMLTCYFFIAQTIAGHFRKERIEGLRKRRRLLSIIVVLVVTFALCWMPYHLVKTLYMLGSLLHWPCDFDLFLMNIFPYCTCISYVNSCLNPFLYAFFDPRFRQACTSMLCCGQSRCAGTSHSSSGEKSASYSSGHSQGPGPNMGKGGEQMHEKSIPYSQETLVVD
CAAX prenyl protease 2 (Homo sapiens, UniProt Q9Y256), sequence (Q9Y256 whole entry): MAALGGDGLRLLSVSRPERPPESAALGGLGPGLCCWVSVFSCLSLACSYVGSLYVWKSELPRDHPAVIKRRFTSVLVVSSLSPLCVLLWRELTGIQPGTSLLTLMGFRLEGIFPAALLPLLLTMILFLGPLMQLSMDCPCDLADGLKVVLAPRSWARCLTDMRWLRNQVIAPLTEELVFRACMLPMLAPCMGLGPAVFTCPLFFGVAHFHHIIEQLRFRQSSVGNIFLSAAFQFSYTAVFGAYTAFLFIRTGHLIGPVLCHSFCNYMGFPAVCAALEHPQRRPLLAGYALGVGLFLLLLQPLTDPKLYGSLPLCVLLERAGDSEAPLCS
Paired box protein Pax-8, sequence (Q06710 whole entry): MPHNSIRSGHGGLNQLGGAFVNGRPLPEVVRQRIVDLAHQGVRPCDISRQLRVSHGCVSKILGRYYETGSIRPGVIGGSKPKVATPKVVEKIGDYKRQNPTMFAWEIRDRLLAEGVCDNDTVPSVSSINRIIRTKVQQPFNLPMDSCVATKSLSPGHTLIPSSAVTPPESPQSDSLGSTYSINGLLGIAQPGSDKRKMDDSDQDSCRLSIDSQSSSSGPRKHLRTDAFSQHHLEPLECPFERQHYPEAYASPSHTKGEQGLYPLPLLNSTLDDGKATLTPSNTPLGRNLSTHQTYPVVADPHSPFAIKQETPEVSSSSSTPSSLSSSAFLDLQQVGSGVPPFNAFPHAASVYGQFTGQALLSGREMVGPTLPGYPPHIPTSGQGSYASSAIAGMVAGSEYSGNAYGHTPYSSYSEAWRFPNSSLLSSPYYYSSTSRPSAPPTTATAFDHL
Induced myeloid leukemia cell differentiation protein Mcl-1, sequence (Q07820 whole entry): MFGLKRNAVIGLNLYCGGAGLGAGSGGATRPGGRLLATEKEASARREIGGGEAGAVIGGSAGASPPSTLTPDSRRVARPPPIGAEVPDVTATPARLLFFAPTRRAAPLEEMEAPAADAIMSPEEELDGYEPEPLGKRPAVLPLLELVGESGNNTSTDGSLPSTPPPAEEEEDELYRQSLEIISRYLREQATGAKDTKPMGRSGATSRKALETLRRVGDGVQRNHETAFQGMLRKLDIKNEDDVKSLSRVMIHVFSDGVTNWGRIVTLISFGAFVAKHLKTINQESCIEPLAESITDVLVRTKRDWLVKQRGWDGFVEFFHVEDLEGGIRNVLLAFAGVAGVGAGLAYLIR

COC(=O)C1=NN(C(=O)c2cccc(Br)c2)C(O)(c2ccc(Cl)cc2)C1 (stereo not drawn)
EC50 [1]: 2.9 µM (active)
EC50 [2]: 5.31 µM (active)
EC50 (Protein RecA): 13.7 µM (active)
IC50 (Apelin receptor): 12.1 µM (active)
IC50 (Beta-galactosidase): > 66.6 µM (inactive)
EC50 (Streptococcus): 3.87 µM (active)
AC50 [3]: > 380 µM (inactive)

CCN(CC)S(=O)(=O)c1cc(NC(=O)Cn2ncc(Cl)c(Cl)c2=O)ccc1C
EC50 (HEK293 [4]): > 59.6 µM (inactive)
IC50 [5]: 4.21 µM (active)
AC50 (Paired box protein Pax-8): 4.84 µM (active)
EC50 (Protein RecA): 14.5 µM (active)
EC50 (HEK293 [6]): > 59.6 µM (inactive)
AC50 [3]: 11.8 µM (active)

CCOc1ccc2nc(O)c(CN(CCN3CCOCC3)Cc3nnnn3C(C)(C)CC)cc2c1
AC50 (CAAX prenyl protease 2 [7]): > 100 µM (inactive)
AC50 (CAAX prenyl protease 2 [8]): 7.54 µM (active)

Cc1sc2nc(SCCN(C)C)n(-c3ccccc3)c(=O)c2c1-c1ccc(F)cc1
IC50 (Apelin receptor): 30.9 µM (inactive)
AC50 [9]: 7.17 µM (active)
IC50 (Beta-galactosidase): > 66.6 µM (inactive)
